Entries after “also recorded” stand apart in the source; their conditions may differ.

Experiment [1] has as its system α1A-AR. The experiment can be described thus: cAMP assay and PAM assay in Rat-1 fibroblasts expressing α1A-AR. It is filed as cell-based. Particulars: for PAM activity (NE-mediated cAMP potentiation, PAM assay): NE 10^−4 M held constant, compound dose-response; for intrinsic (basal) agonist activity, cAMP: compound alone, dose-response.
In experiment [2] the target is T1, α1A-AR (Homo sapiens, UniProt P35348).
T1 sequence (P35348 1-466): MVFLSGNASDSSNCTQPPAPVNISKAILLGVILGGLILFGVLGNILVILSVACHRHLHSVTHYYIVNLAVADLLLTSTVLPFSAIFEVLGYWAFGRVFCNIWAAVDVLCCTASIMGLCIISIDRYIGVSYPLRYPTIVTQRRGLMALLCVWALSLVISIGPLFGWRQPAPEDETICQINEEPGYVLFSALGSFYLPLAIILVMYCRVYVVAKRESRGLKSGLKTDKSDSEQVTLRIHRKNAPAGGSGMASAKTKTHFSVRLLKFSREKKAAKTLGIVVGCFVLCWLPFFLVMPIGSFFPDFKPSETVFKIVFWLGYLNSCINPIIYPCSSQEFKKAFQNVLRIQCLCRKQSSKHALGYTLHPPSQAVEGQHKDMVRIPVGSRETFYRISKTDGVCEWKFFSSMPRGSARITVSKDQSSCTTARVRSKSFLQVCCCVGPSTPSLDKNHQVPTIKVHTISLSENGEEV
As to the kind of experiment: Total inositol phosphate assay in Rat-1 fibroblasts expressing α1A-AR. It is filed as cell-based. Particulars: for intrinsic (basal) agonist activity, inositol phosphate: compound alone, dose-response.

Experiment [3] has as its target T1, α1A-AR. The class given is binding. The settings on record: for extent of inhibition of 125I-HEAT binding at α1A-AR: 0.5 mM GTP.
A further experiment deals with α1B-AR. The class given is binding. Particulars: 0.5 mM GTP.
Another experiment has as its target T2, α1D-AR (Homo sapiens, UniProt P25100).
T2 sequence (P25100 1-572): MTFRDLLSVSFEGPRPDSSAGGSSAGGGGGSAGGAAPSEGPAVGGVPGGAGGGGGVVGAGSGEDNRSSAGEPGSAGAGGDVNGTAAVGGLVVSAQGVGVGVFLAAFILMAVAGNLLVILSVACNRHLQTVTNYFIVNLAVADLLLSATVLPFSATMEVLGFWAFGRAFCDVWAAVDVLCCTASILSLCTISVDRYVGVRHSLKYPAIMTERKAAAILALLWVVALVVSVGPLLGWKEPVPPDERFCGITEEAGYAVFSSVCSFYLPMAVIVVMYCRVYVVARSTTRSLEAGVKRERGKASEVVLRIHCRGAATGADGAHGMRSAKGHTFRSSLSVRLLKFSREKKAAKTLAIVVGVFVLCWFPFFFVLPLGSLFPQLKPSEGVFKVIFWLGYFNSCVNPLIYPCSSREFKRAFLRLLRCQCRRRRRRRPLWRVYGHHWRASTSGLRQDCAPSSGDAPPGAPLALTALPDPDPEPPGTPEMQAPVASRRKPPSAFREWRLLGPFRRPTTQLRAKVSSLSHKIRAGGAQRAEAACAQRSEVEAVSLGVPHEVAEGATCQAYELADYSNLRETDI
It is filed as binding. The settings on record: 0.5 mM GTP.

Experiment [4] has as its target T1, α1A-AR. The settings on record: ref Hwa et al., 1995; cited from earlier work.
The next experiment addresses T3, α2A-AR (Homo sapiens, UniProt P08913).
T3 sequence (P08913 1-465): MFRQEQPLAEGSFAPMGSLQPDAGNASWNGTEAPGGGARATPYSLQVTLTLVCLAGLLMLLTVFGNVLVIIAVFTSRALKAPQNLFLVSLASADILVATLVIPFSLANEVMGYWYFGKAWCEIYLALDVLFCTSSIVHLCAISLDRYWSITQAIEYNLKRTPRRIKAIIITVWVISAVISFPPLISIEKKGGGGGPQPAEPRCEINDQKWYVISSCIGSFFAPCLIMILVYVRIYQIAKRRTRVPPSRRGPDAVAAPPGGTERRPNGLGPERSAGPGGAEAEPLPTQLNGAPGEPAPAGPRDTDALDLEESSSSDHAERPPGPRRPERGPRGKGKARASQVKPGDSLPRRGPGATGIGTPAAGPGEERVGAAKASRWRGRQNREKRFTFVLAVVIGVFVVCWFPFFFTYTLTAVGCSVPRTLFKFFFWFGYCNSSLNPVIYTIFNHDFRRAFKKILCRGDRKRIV
It is filed as binding. The settings on record: Cos-1 membranes.

With `CC(C)Cc1c(OCC2=NCCN2)ccc(Cl)c1N(C)S(C)(=O)=O.Cl` [Cmpd-7, N-(6-Chloro-3-((4,5-dihydro-1H-imidazol-2-yl)methoxy)-2-isobutylphenyl)-N-methylmethanesulfonamide hydrochloride], in the experiment on α1A-AR [1], the “PAM activity (NE-mediated cAMP potentiation, PAM assay)” value (from here on “PAM activity”) is recorded as “abolished PAM activity”.

Turning to `CC(C)CCc1c(OCC2=NCCN2)cccc1N(C)S(C)(=O)=O.Cl` [Cmpd-10, N-(3-((4,5-Dihydro-1H-imidazol-2-yl)methoxy)-2-isopentylphenyl)-N-methylmethanesulfonamide hydrochloride], the “intrinsic (basal) agonist activity, inositol phosphate” value (shortened to “intrinsic … inositol phosphate”) on α1A-AR [2] is on record as “do not show any basal activity”. Moreover, in the experiment on α1A-AR [1], the “PAM activity” value is “retained PAM activity; also recorded: display PAM effect” and the “intrinsic (basal) agonist activity, cAMP” value was “do not show any basal activity”.

For `CC(C)Cc1c(OCC2=NCCN2)cccc1N(C)S(=O)(=O)C(C)C.Cl` [Cmpd-12, N-(3-((4,5-Dihydro-1H-imidazol-2-yl)methoxy)-2-isobutylphenyl)-N-methylpropane-2-sulfonamide hydrochloride], at α1A-AR [2], the “intrinsic … inositol phosphate” value is given as “do not show any basal activity”. In addition, in the experiment on α1A-AR [1], the “PAM activity” value is on record as “lost PAM activity; also recorded: display competitive inhibition; also recorded: abolished PAM activity” and the “intrinsic (basal) agonist activity, cAMP” value is on record as “do not show any basal activity”.

For `CN(c1cccc(OCC2=NCCN2)c1CC(F)(F)F)S(C)(=O)=O.Cl` [Cmpd-13, N-(3-((4,5-Dihydro-1H-imidazol-2-yl)methoxy)-2-(2,2,2-trifluoroethyl)phenyl)-N-methylmethanesulfonamide hydrochloride], the “intrinsic … inositol phosphate” value on α1A-AR [2] is reported as “do not show any basal activity”. In the experiment with α1A-AR [1], the “PAM activity” value is “lost PAM activity; also recorded: display competitive inhibition; also recorded: abolishes PAM activity” and the “intrinsic (basal) agonist activity, cAMP” value is “do not show any basal activity”.

On to `CN(c1cccc(OCC2=NCCN2)c1CC(C)(C)C)S(C)(=O)=O.Cl` [Cmpd-14, N-(3-((4,5-Dihydro-1H-imidazol-2-yl)methoxy)-2-neopentylphenyl)-N-methylmethanesulfonamide hydrochloride], for which the “intrinsic … inositol phosphate” value on α1A-AR [2] is on record as “do not show any basal activity”. Besides, in the experiment on α1A-AR [1], the “PAM activity” value is listed as “retained PAM activity; also recorded: display PAM effect” and the “intrinsic (basal) agonist activity, cAMP” value was “do not show any basal activity”.

For `NC[C@H](O)c1ccc(O)c(O)c1` [NE, norepinephrine], the “fraction of receptor in the high affinity state, NE alone” value at α1A-AR [3] (absence of GTP) stood at 15%.

Consider `Cc1c(OCC2=NCCN2)ccc(Cl)c1NS(C)(=O)=O` [RO115-1240, Dabuzalgron, reference compound], for which, at α1A-AR [2], the “effect on Epi-mediated inositol phosphate signal at α1A-AR” value is reported as “effects consistent with a partial or full agonist”; the “effect on NE-mediated inositol phosphate signal at α1A-AR” value was “effects consistent with a partial or full agonist”; the “intrinsic … inositol phosphate” value is listed as “partial agonists”. In the experiment on α1A-AR [1], the “PAM activity” value is recorded as “neither RO115-1240 nor cirazoline displayed any PAM characteristics” and the “intrinsic (basal) agonist activity, cAMP” value is “partial agonists”.

For `c1ccc(C2CC2)c(OCC2=NCCN2)c1` [cirazoline, reference compound], in the experiment on α1B-AR, the “binding at α1B-AR (125I-HEAT competition)” value is on record as “completely inhibited”. Besides, the “extent of inhibition of 125I-HEAT binding at α1D-AR” value on α1D-AR was “completely inhibited”. For the same compound, the “selectivity for α1A-AR against the α1B- and α1D-AR subtypes” value at α1A-AR [4] is on record as 10-50 fold. Further, the “intrinsic … inositol phosphate” value on α1A-AR [2] is recorded as “partial agonists”. Also, in the experiment with α1A-AR [1] (Epi dose-response, propranolol and rauwolscine present), the “effect on Epi-mediated cAMP response at α1A-AR” value was “rightward curve-shifting effects; also recorded: rightward shifting competitive effects”. Besides, in the experiment on α1A-AR [1], the “PAM activity” value is given as “competitive inhibition; also recorded: neither RO115-1240 nor cirazoline displayed any PAM characteristics” and the “intrinsic (basal) agonist activity, cAMP” value is given as “partial agonists; also recorded: greater intrinsic activity than RO115-1224”. Also, the “effect on NE-mediated cAMP response at α1A-AR” value with α1A-AR [1] (NE dose-response, propranolol and rauwolscine present) is reported as “rightward curve-shifting effects; also recorded: rightward shifting competitive effects”. For the same compound, the “extent of inhibition of 125I-HEAT binding at α1A-AR” value on α1A-AR [3] was “fully inhibit; also recorded: completely inhibited”. In addition, the “effect on NE binding at α1A-AR” value on α1A-AR [3] (compound 10^−5 M, absence of GTP, 125I-HEAT) is on record as “fully-inhibited the binding of NE; also recorded: completely competes off NE binding”.

For `Cc1ccc(N(CC2=NCCN2)c2cccc(O)c2)cc1` [phentolamine], at α1A-AR [3], the “extent of inhibition of 125I-HEAT binding at α1A-AR” value is listed as “fully inhibit; also recorded: completely inhibited”.

Consider `COC(=O)[C@H]1[C@H]2C[C@H]3c4[nH]c5ccccc5c4CCN3C[C@H]2CC[C@@H]1O` [rauwolscine, reference compound], for which, on α2A-AR, the “extent of inhibition of 3H-RX821002 binding at α2A-AR” value is on record as “fully inhibited”.
